Like-named read-outs stand apart in the source and are kept apart here.
Molecular target: T1, mouse TMEM16A mutant G558P (Mus musculus, UniProt Q8BHY3, G558P)
T1 construct: expressed in transfected cells; host or cells: HEK293T
T1 sequence (Q8BHY3 1-960 G558P): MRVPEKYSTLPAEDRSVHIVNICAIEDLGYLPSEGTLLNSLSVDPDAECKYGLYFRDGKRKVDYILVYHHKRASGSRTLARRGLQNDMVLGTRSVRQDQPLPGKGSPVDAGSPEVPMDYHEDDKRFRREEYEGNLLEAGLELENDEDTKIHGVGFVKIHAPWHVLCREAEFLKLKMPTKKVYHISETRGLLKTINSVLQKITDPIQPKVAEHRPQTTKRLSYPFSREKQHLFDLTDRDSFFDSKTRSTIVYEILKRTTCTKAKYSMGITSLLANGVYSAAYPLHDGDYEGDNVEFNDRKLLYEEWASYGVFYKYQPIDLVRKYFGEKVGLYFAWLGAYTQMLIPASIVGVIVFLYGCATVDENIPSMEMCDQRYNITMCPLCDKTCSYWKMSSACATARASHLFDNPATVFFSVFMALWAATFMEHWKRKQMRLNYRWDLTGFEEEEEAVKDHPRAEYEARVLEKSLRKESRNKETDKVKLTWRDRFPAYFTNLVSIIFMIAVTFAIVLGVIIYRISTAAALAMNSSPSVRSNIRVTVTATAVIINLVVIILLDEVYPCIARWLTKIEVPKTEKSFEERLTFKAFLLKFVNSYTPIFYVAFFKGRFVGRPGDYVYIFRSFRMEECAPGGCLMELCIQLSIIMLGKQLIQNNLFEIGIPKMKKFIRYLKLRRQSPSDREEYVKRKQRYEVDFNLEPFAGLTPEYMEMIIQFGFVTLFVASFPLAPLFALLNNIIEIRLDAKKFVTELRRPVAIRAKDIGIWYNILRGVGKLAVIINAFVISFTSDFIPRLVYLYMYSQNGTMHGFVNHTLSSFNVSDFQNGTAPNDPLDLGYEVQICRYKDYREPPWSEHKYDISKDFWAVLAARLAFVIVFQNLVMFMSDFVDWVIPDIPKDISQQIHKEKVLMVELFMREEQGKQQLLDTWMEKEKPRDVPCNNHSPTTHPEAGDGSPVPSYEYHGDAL
Assay: Inside-out patch recording of 1PBC block, mutant G558P
Assay type: cell-based
Settings: for remaining activity at 1 µM: 1PBC conc 1; for remaining activity at 1 µM / remaining activity at 3 µM / remaining activity at 10 µM / remaining activity at 30 µM / remaining activity at 100 µM: read-out: relative current in 1PBC (avr); for remaining activity at 3 µM: 1PBC conc 3; for remaining activity at 10 µM: 1PBC conc 10; for remaining activity at 30 µM: 1PBC conc 30; for remaining activity at 100 µM: 1PBC conc 100
Procedure: HEK293T cells (ATCC CRL-1573) were maintained in Dulbecco’s modified Eagle’s medium (DMEM; Sigma-Aldrich) supplemented with 10 U ml^−1 penicillin, 0.1 mg ml^−1 streptomycin (Sigma-Aldrich), 2 mM L-glutamine (Sigma-Aldrich), and 10% FBS (Sigma-Aldrich) in a humidified atmosphere containing 5% CO2 at 37 °C. HEK293S GnTI^− cells (ATCC CRL-3022) were maintained in HyClone HyCell TransFx-H medium (GE Healthcare) supplemented with 10 U ml^−1 penicillin, 0.1 mg ml^−1 streptomycin, 4 mM L-glutamine, 0.15% poloxamer 188 (Sigma-Aldrich), and 1% FBS in an atmosphere containing 5% CO2 at 185 rpm at 37 °C. The ac splice variant of mouse TMEM16A (UniProt ID: Q8BHY3), mouse TMEM16B (UniProt ID: Q8CFW1), or mouse TMEM16F (UniProt ID: Q6P9J9) bearing a 3C cleavage site, a Venus YFP, a Myc tag, and a Streptavidin-binding peptide (SBP) downstream of the open reading frame in a modified pcDNA3.1 vector (Invitrogen) were used as described previously[21],[31]. Mutations were introduced using a modified QuikChange method[58] and were verified by sequencing.
HEK293T cells were transfected with 3–4 μg DNA per 6 cm Petri dish using the calcium phosphate co-precipitation method and were used within 24–96 h after transfection. Recordings were performed on inside-out patches excised from HEK293T cells expressing the construct of interest. Patch pipettes were pulled from borosilicate glass capillaries (O.D. 1.5 mm, I.D. 0.86 mm, Sutter Instrument) and were fire-polished with a microforge (Narishige) before use. Pipette resistance was typically 3–8 MΩ when filled with the recording solutions detailed below. Seal resistance was typically 4 GΩ or higher. Voltage-clamp recordings were made using Axopatch 200B, Digidata 1550, and Clampex 10.7 (Molecular Devices). Analog signals were filtered with the in-built 4-pole Bessel filter at 10 kHz and were digitized at 20 kHz. Solution exchange was achieved using a gravity-fed system through a theta glass pipette mounted on an ultra-fast piezo-driven stepper (Siskiyou). […] All recordings were performed at 20 °C.
A symmetrical ionic condition was used throughout. Stock solution with Ca^2+-EGTA contained 150 mM NaCl, 5.99 mM Ca(OH)2, 5 mM EGTA, and 10 mM HEPES at pH 7.40. Stock solution with EGTA contained 150 mM NaCl, 5 mM EGTA, and 10 mM HEPES at pH 7.40. Free Ca^2+ concentrations were adjusted by mixing the stock solutions at the required ratios calculated using the WEBMAXC program (http://web.stanford.edu/~cpatton/webmaxcS.htm). Patch pipettes were filled with the stock solution with Ca^2+-EGTA, which has a free Ca^2+ concentration of 1 mM. 1PBC (ChemBridge) stock was reconstituted in anhydrous DMSO (Sigma-Aldrich) at 100 mM and stored at −20 °C. Working solutions with 1PBC were prepared by serial dilution. Unless otherwise stated, experiments were performed at a saturating Ca^2+ concentration as shown in Supplementary Table 1 and the primary data were corrected for current rundown as described previously[21],[25].
Concentration-response relations, obtained from the ratio of the I-V plots before and after the application of the blocker, were fitted to the Hill equation,1 I/Imax=1/1+IC50/[blocker]^h where I/Imax is the normalized current responses, IC50 defines the concentration at which inhibition is at its half-maximum, and h is the Hill coefficient.

IC50 (0 mV, 15 µM Ca2+): 6.23 µM
remaining activity at 1 µM (0 mV): 83.9%
remaining activity at 3 µM (0 mV): 66.6%
remaining activity at 10 µM (0 mV): 39.1%
remaining activity at 30 µM (0 mV): 18.8%
remaining activity at 100 µM (0 mV): 7.07%
I/Imax_+80mV (1 μM 1PBC): 0.7511
I/Imax_-80mV (1 μM 1PBC, -80 mV): 0.9508
I/Imax_+80mV (3 μM 1PBC): 0.5097
I/Imax_-80mV (3 μM 1PBC, -80 mV): 0.8567
I/Imax_+80mV (10 μM 1PBC): 0.2409
I/Imax_-80mV (10 μM 1PBC, -80 mV): 0.6177
Effect of mutation G558P on block by 1PBC (15 µM Ca2+): did not interfere with block
I/Imax_+80mV (30 μM 1PBC): 0.1115
I/Imax_-80mV (30 μM 1PBC, -80 mV): 0.3696
I/Imax_+80mV (100 μM 1PBC): 0.03071
I/Imax_-80mV (100 μM 1PBC, -80 mV): 0.1483
IC50 (20 mV, 15 µM Ca2+): 4.87 µM
remaining activity at 1 µM (20 mV): 81.1%
remaining activity at 3 µM (20 mV): 60.9%
remaining activity at 10 µM (20 mV): 34%
remaining activity at 30 µM (20 mV): 15.5%
remaining activity at 100 µM (20 mV): 5.33%
IC50 (40 mV, 15 µM Ca2+): 3.94 µM
remaining activity at 1 µM (40 mV): 78.3%
remaining activity at 3 µM (40 mV): 56.7%
remaining activity at 10 µM (40 mV): 28.5%
remaining activity at 30 µM (40 mV): 13.4%
remaining activity at 100 µM (40 mV): 4.84%
IC50 (60 mV, 15 µM Ca2+): 3.4 µM
remaining activity at 1 µM (60 mV): 75.9%
remaining activity at 3 µM (60 mV): 52.9%
remaining activity at 10 µM (60 mV): 26.1%
remaining activity at 30 µM (60 mV): 12%
remaining activity at 100 µM (60 mV): 3.75%
IC50 (80 mV, 15 µM Ca2+): 3.14 µM
remaining activity at 1 µM (80 mV): 75.1%
remaining activity at 3 µM (80 mV): 51%
remaining activity at 10 µM (80 mV): 24.1%
remaining activity at 30 µM (80 mV): 11.2%
remaining activity at 100 µM (80 mV): 3.07%
IC50 (100 mV, 15 µM Ca2+): 3.03 µM
remaining activity at 1 µM (100 mV): 75.6%
remaining activity at 3 µM (100 mV): 50.3%
remaining activity at 10 µM (100 mV): 22.1%
remaining activity at 30 µM (100 mV): 10.7%
remaining activity at 100 µM (100 mV): 2.38%
IC50 (120 mV, 15 µM Ca2+): 3.26 µM
remaining activity at 1 µM (120 mV): 77.2%
remaining activity at 3 µM (120 mV): 52.2%
remaining activity at 10 µM (120 mV): 23.4%
remaining activity at 30 µM (120 mV): 10.7%
remaining activity at 100 µM (120 mV): 2.42%
IC50 (140 mV, 15 µM Ca2+): 3.86 µM
remaining activity at 1 µM (140 mV): 81.4%
remaining activity at 3 µM (140 mV): 57%
remaining activity at 10 µM (140 mV): 25.2%
remaining activity at 30 µM (140 mV): 12%
remaining activity at 100 µM (140 mV): 3.17%
IC50 (-20 mV, 15 µM Ca2+): 7.94 µM
remaining activity at 1 µM (-20 mV): 86.7%
remaining activity at 3 µM (-20 mV): 72.3%
remaining activity at 10 µM (-20 mV): 44.1%
remaining activity at 30 µM (-20 mV): 22.2%
remaining activity at 100 µM (-20 mV): 8.82%
IC50 (-40 mV, 15 µM Ca2+): 10.4 µM
remaining activity at 1 µM (-40 mV): 89.5%
remaining activity at 3 µM (-40 mV): 77.5%
remaining activity at 10 µM (-40 mV): 50.6%
remaining activity at 30 µM (-40 mV): 26.7%
remaining activity at 100 µM (-40 mV): 9.6%
IC50 (-60 mV, 15 µM Ca2+): 13.4 µM
remaining activity at 1 µM (-60 mV): 92.1%
remaining activity at 3 µM (-60 mV): 80.7%
remaining activity at 10 µM (-60 mV): 56.7%
remaining activity at 30 µM (-60 mV): 32.1%
remaining activity at 100 µM (-60 mV): 12.3%
IC50 (-80 mV, 15 µM Ca2+): 17.1 µM
remaining activity at 1 µM (-80 mV): 95.1%
remaining activity at 3 µM (-80 mV): 85.7%
remaining activity at 10 µM (-80 mV): 61.8%
remaining activity at 30 µM (-80 mV): 37%
remaining activity at 100 µM (-80 mV): 14.8%
IC50 (-100 mV, 15 µM Ca2+): 21.1 µM
remaining activity at 1 µM (-100 mV): 96.1%
remaining activity at 3 µM (-100 mV): 88.1%
remaining activity at 10 µM (-100 mV): 66.8%
remaining activity at 30 µM (-100 mV): 41.5%
remaining activity at 100 µM (-100 mV): 17.8%
IC50 (-120 mV, 15 µM Ca2+): 25.4 µM
remaining activity at 1 µM (-120 mV): 98.5%
remaining activity at 3 µM (-120 mV): 90.8%
remaining activity at 10 µM (-120 mV): 71.2%
remaining activity at 30 µM (-120 mV): 45.8%
remaining activity at 100 µM (-120 mV): 19.8%
IC50 (-140 mV, 15 µM Ca2+): 30 µM
remaining activity at 1 µM (-140 mV): 100%
remaining activity at 3 µM (-140 mV): 92.8%
remaining activity at 10 µM (-140 mV): 74.7%
remaining activity at 30 µM (-140 mV): 49.7%
remaining activity at 100 µM (-140 mV): 22.2%
IC50 (G558P, V 0 mV): 6.23 µM
IC50 (G558P, V 20 mV): 4.87 µM
IC50 (G558P, V 40 mV): 3.94 µM
IC50 (G558P, V 60 mV): 3.4 µM
IC50 (G558P, V 80 mV): 3.14 µM
IC50 (G558P, V 100 mV): 3.03 µM
IC50 (G558P, V 120 mV): 3.26 µM
IC50 (G558P, V 140 mV): 3.86 µM
IC50 (G558P, V -20 mV): 7.94 µM
IC50 (G558P, V -40 mV): 10.4 µM
IC50 (G558P, V -60 mV): 13.4 µM
IC50 (G558P, V -80 mV): 17.1 µM
IC50 (G558P, V -100 mV): 21.1 µM
IC50 (G558P, V -120 mV): 25.4 µM
IC50 (G558P, V -140 mV): 30 µM
Compound: N#Cc1c(C(F)(F)F)cc(O)n2c1nc1ccccc12 [1PBC]

From publication PMC9120017, “Inhibition mechanism of the chloride channel TMEM16A by the pore blocker 1PBC” (Nature Communications, 2022)
